# In US7326721B2 (Hypnion, Inc., priority 2003, dated 2008):
# Key:
# [1] = biological target: GABA A, BDZ, alpha 1 site (Homo sapiens, UniProt P14867+P18507); experiment: Table 12 panel: GABA A, BDZ; settings: 1.0E−6, average N=2, read-out: percentage inhibition of specific binding
# Source text: (§1) The percentage inhibition (average; N=2) for these receptors is shown below in Table 12.
# (§2) Values in Table 12 are expressed as percentage inhibition of specific binding, and these values represent the average of replicate tubes at each of the concentrations tested.
# Bradykinin, BK2 = Bradykinin, BK2 (Homo sapiens, UniProt P30411); experiment: Table 12 panel: Bradykinin, BK2; settings: 1.0E−6, average N=2, read-out: percentage inhibition of specific binding
# Chain of Bradykinin, BK2 (P30411 whole entry): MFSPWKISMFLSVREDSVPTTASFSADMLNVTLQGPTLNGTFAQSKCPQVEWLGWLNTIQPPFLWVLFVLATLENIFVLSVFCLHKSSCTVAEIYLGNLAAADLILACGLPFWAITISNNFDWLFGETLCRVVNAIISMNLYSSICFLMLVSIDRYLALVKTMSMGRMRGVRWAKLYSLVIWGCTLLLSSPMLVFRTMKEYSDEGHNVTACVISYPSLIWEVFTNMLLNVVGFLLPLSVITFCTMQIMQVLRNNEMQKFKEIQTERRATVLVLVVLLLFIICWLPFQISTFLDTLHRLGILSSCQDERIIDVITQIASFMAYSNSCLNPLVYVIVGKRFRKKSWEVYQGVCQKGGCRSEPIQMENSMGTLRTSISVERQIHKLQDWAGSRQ
# Source text: as §1, §2
# Melatonin, Non-selective = experiment: Table 12 panel: Melatonin; format: binding; settings: 1.0E−6, average N=2
# Source text: as §1, §2
# Opioid, Non-selective = experiment: Table 12 panel: Opioid; format: binding; settings: 1.0E−6, average N=2
# Source text: as §1, §2
# Sigma, Non-selective = experiment: Table 12 panel: Sigma; format: binding; settings: 1.0E−6, average N=2
# Source text: as §1, §2
# [2] = tested on: T1, Adrenergic, Alpha 2, Non-selective; experiment: Table 12 panel: Adrenergic, Alpha 2; format: binding; settings: Adrenergic, Alpha 2; 1.0E−6; average N=2
# T1 construct: other: Adrenergic, Alpha 2; 1.0E−6; average N=2
# [3] = tested on: T2, Adrenergic, Alpha 1, Non-selective; experiment: Table 12 panel: Adrenergic, Alpha 1; format: binding; settings: Adrenergic, Alpha 1; 1.0E−6; average N=2
# T2 construct: other: Adrenergic, Alpha 1; 1.0E−6; average N=2
# CYP 2D6 = biological target: T3, CYP 2D6 (Homo sapiens, UniProt P10635); experiment: Cytochrome P450 inhibition: CYP 2D6; format: in vitro ADME; settings: human microsomal preparation
# T3 construct: in a commercially available human microsomal preparation; purchased; host or cells: human microsomal preparation
# T3 sequence (P10635 whole entry): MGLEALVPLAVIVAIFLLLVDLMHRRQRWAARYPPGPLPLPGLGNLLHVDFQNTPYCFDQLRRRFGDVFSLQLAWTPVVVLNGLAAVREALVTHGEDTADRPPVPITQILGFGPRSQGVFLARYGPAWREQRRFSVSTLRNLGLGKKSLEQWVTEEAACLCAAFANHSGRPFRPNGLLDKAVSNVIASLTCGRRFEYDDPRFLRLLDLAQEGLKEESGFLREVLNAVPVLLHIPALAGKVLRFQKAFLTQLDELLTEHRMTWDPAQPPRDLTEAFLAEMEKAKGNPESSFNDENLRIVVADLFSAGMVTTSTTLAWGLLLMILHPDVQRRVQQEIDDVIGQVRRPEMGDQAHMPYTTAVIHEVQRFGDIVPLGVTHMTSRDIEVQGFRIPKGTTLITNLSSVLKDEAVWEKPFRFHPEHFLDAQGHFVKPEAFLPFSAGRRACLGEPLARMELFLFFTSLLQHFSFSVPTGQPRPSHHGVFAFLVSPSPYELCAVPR
# Description: Cytochrome P450 inhibition was studied with HY2901 in vitro. […] In addition, the in vitro rate of metabolism in rat, dog, monkey, and human hepatocyte cultures was determined for HY2901.
# [4] = Protein binding in human plasma; format: in vitro ADME
# Description: (§3) HY2901 was administered to rats, dogs, and cynomolgus monkeys at a dose of 3 mg/kg orally and intravenously. Plasma samples were collected from all species for pharmacokinetic analysis. […] HY2901 is 75% protein bound in rat plasma and 60% protein bound in human plasma.
# [5] = Plasma pharmacokinetics in cynomolgus monkeys; format: in vivo; settings: cynomolgus monkey, 3 mg/kg
# Source text: The following pharmacokinetic parameters are computed from the individual plasma concentrations of the modified antihistamine compound using a noncompartmental approach and appropriate validated pharmacokinetic software (e.g., WinNonlin Professional). Concentration values reported as BLQ are set to zero. If concentration data are available, interim calculations are done (non-QC.d data) between periods if possible.
# Dose proportionality following study medication is explored by analyzing natural log-transformed pharmacokinetic variables AUC(0-t), AUC(0-inf), and Cmax with a linear model including the natural log-transformed dose as covariates. […] The following parameters were estimated: • Cmax Maximum plasma concentration. • Tmax Time to maximum concentration. • Cmax and Tmax were reported directly from the concentration-time data. • AUC0-T Area under the plasma concentration-time curve from time […] to the last time point with measurable concentrations, estimated bylinear trapezoidal rule. • AUC0-00 Area under the plasma concentration-time curve extrapolated to infinity, calculated using the formula: AUC0-00=AUC0-1+C0/λ0 • Where Ct is the last measurable concentration in plasma and λz is the terminal phase elimination rate constant estimated using log-linear regression during the terminal elimination phase. […]
# [6] = Protein binding in rat plasma; format: in vitro ADME
# Description: as §3
# Chain of GABA A, BDZ, alpha 1 site (P14867 28-456): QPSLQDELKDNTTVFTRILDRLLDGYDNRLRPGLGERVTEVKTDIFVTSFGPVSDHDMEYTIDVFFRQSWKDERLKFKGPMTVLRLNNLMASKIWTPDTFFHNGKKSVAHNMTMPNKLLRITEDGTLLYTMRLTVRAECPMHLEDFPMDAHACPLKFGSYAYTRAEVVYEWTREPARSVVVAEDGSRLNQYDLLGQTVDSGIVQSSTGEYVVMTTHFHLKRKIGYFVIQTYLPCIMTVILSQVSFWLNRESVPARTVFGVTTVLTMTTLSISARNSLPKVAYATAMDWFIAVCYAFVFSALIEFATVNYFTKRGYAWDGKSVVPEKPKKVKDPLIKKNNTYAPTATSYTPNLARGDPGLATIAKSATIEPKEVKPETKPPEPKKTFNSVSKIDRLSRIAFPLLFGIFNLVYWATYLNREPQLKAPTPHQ
# Chain of GABA A, BDZ, alpha 1 site (P18507 40-467 limits assumed): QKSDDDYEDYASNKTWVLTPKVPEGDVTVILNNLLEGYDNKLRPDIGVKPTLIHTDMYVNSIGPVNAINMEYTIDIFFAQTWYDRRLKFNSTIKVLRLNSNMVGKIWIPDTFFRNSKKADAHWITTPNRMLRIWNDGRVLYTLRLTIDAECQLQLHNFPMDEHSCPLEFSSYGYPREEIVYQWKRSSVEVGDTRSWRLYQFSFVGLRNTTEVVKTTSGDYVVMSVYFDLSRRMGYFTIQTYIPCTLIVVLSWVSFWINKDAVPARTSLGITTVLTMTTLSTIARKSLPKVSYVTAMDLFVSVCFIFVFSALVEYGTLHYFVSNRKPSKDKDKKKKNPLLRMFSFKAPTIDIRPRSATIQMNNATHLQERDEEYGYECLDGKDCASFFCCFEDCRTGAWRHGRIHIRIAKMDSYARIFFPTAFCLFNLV
# Chain of GABA A, BDZ, alpha 1 site (P47870 25-512 partner limits assumed): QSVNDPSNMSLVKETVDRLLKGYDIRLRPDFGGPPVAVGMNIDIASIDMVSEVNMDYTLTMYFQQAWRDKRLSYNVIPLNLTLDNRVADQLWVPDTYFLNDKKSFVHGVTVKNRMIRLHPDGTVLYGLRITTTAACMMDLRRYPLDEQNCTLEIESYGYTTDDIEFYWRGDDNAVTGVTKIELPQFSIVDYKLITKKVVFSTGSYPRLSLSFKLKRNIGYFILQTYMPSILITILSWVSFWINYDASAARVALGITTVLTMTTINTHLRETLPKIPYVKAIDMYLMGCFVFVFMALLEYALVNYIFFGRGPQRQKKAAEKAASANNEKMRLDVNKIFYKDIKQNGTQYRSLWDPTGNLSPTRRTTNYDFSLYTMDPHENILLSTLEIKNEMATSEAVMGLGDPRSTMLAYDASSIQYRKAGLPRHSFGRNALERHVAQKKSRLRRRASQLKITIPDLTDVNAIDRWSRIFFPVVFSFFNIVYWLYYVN
Structure (SMILES),inhibition at 1 µM [1] [%],"inhibition at 1 µM (Bradykinin, BK2) [%]","percentage inhibition of specific binding (Melatonin, Non-selective) [%]","percentage inhibition of specific binding (Opioid, Non-selective) [%]","percentage inhibition of specific binding (Sigma, Non-selective) [%]",percentage inhibition of specific binding [2] [%],percentage inhibition of specific binding [3] [%],inhibition of CYP 2D6 activity (CYP 2D6),protein bound [4] [%],half-life [5] [h],Tmax ([5]; after oral administration) [h],protein bound [6] [%]
CC(CC(=O)O)N1CCC(=C2c3ccc(F)cc3COc3ccccc32)CC1 (stereo not drawn) [Compound 37],-7.13,-3.04,11.29,−9.30,13.27,−3.79,6.56,,,,,
CC(C)(CN1CCC(=C2c3ccc(F)cc3COc3ccccc32)CC1)C(=O)O [Compound 49a],,,,,,,,did not inhibit,60,4.4,1.5,75
